US7056339B2, “Drug delivery platform” (The Board of Trustees of the Leland Stanford Junior …, priority 2001, dated 2006)

Key:
[1] = system: rabbit infra-renal abdominal aorta, in-stent plaque; test: Morphological analysis of intima/media ratios 28 days after in vivo stent implantation; design: species or system New Zealand White rabbits; conditions: 28 days after stent implantation, mean ± SE
Procedure: Age-matched adult male New Zealand White rabbits weighing 3.8–4.2 kg were used in accordance to NIH and institutional guidelines (n=6 animals per group). Under general anesthesia, an arteriotomy at the femoral artery was performed and a 5 Fr introducing sheath was placed. Under fluoroscopic guidance, aseptically prepared channeled stents filled with blank or angiostatin microspheres were deployed in the infra-renal abdominal aorta. Stents were post-dilated at 8 atm with a 5 mm angioplasty balloon (Jupiter, Cordis, Miami, Fla.) to a final lumen size of 125% above the baseline with care taken to ensure that […] were present within the stent segment. Pre- and post-deployment digital subtraction angiograms were recorded for the blank procedural control and angiostatin treatment groups. The rabbits were fed a 0.25% cholesterol diet after the intervention. Early 7 day follow up (n=3 per group) or late 28 day follow-up (n=3 per group) animals underwent total-body perfusion-fixation as previously described with immediate excision of the aortic segment containing stent. The 7 day aortic specimens were excised longitudinally and stents were removed. The resulting aortic segments were divided into two equal subsegments. One subsegment of each underwent fixation in 10% neutral buffered formalin and embedded in paraffin for light microscopic and morphologic analysis. The remaining subsegment of each specimen was snap frozen for molecular assay. The 28 days aortic specimens were fixed in 10% neutral buffered formalin and were embedded in PolyBed (Polysciences, Warrington, Pa.) for light microscopic and morphologic analysis.
The seven day analysis consisted of thick (5 μm) cross sections of the aortic wall were obtained from the paraffin-embedded specimens (n=9 sections per group). An elastic von Gieson-Masson trichrome or Elastica van Gieson-Hematoxylin double stain was performed for light microscopic analysis. For the 28 day specimen analysis (n=3 animals per group), each plastic-embedded aorta with stents was cut into five pieces longitudinally equal lengths. These pieces were stained by modified Verhoff elastic staining. Five cross sectional images of the stained aorta were obtained (n=15 sections per group) from one side of plastic pieces. […] Using Image Pro Plus software (Media Cybernetics, Silver Spring, Md.), the cross-sectional area of the intima and the media were determined by blinded observers. The ratio of intima area to media area subsequently tabulated for each, with the results presented as Table 2. Mean, standard error, and significance were determined.

[2] = system: rabbit infra-renal abdominal aorta, in-stent plaque; test: Local plaque stability parameters: macrophage infiltrate and endothelial density (CD31), 7 days; type: in vivo, New Zealand White rabbits; conditions: 7 days after stent implantation, stents releasing angiostatin, mean ± SE
Procedure: Age-matched adult male New Zealand White rabbits weighing 3.8–4.2 kg were used in accordance to NIH and institutional guidelines (n=6 animals per group). Under general anesthesia, an arteriotomy at the femoral artery was performed and a 5 Fr introducing sheath was placed. Under fluoroscopic guidance, aseptically prepared channeled stents filled with blank or angiostatin microspheres were deployed in the infra-renal abdominal aorta. Stents were post-dilated at 8 atm with a 5 mm angioplasty balloon (Jupiter, Cordis, Miami, Fla.) to a final lumen size of 125% above the baseline with care taken to ensure that […] were present within the stent segment. Pre- and post-deployment digital subtraction angiograms were recorded for the blank procedural control and angiostatin treatment groups. The rabbits were fed a 0.25% cholesterol diet after the intervention. […]
Cross sections at the 7 day time point evaluated above were obtained (two per segment) from each vessel and incubated with a primary monoclonal antibody to rabbit macrophage (clone RAM-11, 1/800 dilution, DAKO, Carpinteria, Calif.). The number of positive cells per cross section was counted by a blinded observer. […] Mean and standard error were tabulated for each group with significance determined as before and p values as reported.

alpha-1-antitrypsin [AAT] was tested, and the “Intima to media ratio” value ([1]; stents releasing an elastase inhibitor (40 mg alpha-1-antitrypsin loaded), P = 0.0001 vs. controls) was 1.322 ± 0.060.

In the case of “FGF: acidic FGF (Calbiochem) with endotoxin-free heparin as a stabilizer”, the “Intima to media ratio” value ([1]; stents releasing acidic FGF (200 ng with 1280 units heparin as stabilizer), P = 0.004 vs. controls) is reported as 1.634 ± 0.051.

For angiostatin, the “Macrophages (number of cross-sectional macrophages)” value [2] was 34.889 ± 3.948 P = 0.0011 cells per cross section, the “CD31 (number of plaque microvessels)” value ([2]; P < 0.05 vs. controls) was 0.111 ± 0.111 and the “Intima to media ratio” value ([1]; stents releasing angiostatin (2.0 mg loaded in microspheres), P = 0.003 vs. controls) was 1.610 ± 0.050.

“TGFβ1: transforming growth factor β1 (Oncogene Research)” was tested, and the “Intima to media ratio” value ([1]; stents releasing TGFβ1 (2.0 μg loaded), P = 0.004 vs. controls) was 1.803 ± 0.053.

B1: Fas ligand: pro-apoptotic factor Fas ligand (Oncogene Research) (protein, UniProt P48023 130-281, looked up)
Tumor necrosis factor ligand …: QIGHPSPPPEKKELRKVAHLTGKSNSRSMPLEWEDTYGIVLLSGVKYKKGGLVINETGLYFVYSKVYFRGQSCNNLPLSHKVYMRNSKYPQDLVMMEGKMMSYCTTGQMWARSSYLGAVFNLTSADHLYVNVSELSLVNFEESQTFFGLYKL
For B1, the “Intima to media ratio” value ([1]; stents releasing Fas Ligand (10 μg loaded), P < 0.05 vs. controls) was 1.356 ± 0.053.
